What was measured:
[1] = biological target: memapsin 2 (Homo sapiens, UniProt P56817); assay: Inhibition of memapsin 2 catalytic activity toward fluorogenic substrate FS-2; assay type: biochemical; details: pH 4, 37° C., 20 minutes pre-incubation, tight-binding model; symbol outside parentheses; read-out: Activity against memapsin 2: Ki
Procedure: Inhibition Of Memapsin 2. […] Potency of compounds were determined by measurement of their inhibition of memapsin 2 catalytic activity toward a fluorescent substrate. […] Briefly, assays were performed at pH 4, 37° C., by pre-incubation of memapsin 2 enzyme with compound for 20 minutes. Activity measure was initiated by addition of a fluorogenic substrate FS-2 (Bachem Americas, Torrance, Calif.). Fluorescent signal increase over time was measured as a rate of hydrolysis of the peptide substrate. […]

[2] = biological target: T1, memapsin 2 (Cricetulus griseus, UniProt G3IAK4); assay: Cellular Aβ IC50 determination (Aβ40 sandwich ELISA); assay type: cell-based; details: symbol in parentheses; Chinese hamster ovary cells over-expressing human APP695 (London and Swedish mutations), Aβ40, 24 h; read-out: Activity against memapsin 2: (IC50)
T1 construct: endogenous in cells; host or cells: Chinese hamster ovary cells over-expressing human APP695 (London and Swedish mutations)
Procedure: Cellular Aβ C50 Determinations. The potency of compounds against memapsin 2 catalytic activity is determined in a cellular assay of Aβ production. […] Chinese hamster ovary cells that over-express human APP695 with the London and Swedish mutations are seeded in multi-well plates at 10% confluency. Compounds are dissolved in DMSO to concentrations near 1 mM, and diluted into culture media to a final concentration near 4 μM (final 0.4% DMSO). Compounds are diluted serially and applied to cells in multi-well plates 48 h after seeding. Incubation is continued in 5% CO2 at 37 degrees C. for 24 h. Aliquots are removed and assayed for Aβ40 content using a sandwich ELISA (BioSource International). Amount of Aβ40 over the range of concentration of compounds, relative to control incubations, are fit to a 4-parameter IC50 model.

memapsin 2 (Homo sapiens, UniProt P56817), sequence (P56817 46-501): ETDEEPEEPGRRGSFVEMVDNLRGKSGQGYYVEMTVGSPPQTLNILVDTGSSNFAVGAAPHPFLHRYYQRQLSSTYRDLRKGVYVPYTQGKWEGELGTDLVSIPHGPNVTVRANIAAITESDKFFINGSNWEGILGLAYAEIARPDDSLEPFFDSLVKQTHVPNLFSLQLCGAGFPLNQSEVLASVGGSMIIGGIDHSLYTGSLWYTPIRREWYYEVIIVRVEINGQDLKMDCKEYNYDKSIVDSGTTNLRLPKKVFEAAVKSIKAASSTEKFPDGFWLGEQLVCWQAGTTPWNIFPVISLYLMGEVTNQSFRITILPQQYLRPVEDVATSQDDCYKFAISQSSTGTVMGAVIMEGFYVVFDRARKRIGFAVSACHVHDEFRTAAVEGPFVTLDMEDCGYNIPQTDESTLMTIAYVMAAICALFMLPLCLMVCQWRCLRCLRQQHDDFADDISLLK
T1 sequence (G3IAK4 22-501): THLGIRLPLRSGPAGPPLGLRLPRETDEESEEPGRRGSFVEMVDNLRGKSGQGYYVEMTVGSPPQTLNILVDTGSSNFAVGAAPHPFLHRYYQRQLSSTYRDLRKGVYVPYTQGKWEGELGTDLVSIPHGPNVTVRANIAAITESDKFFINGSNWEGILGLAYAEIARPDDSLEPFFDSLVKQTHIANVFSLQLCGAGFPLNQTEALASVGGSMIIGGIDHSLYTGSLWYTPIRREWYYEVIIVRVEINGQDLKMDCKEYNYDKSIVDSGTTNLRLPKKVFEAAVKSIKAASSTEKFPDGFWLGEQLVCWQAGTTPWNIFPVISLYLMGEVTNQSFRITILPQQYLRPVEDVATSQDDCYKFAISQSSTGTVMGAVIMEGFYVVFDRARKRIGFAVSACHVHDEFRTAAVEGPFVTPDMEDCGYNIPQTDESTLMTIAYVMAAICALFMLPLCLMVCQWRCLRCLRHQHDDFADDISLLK

| SMILES | Ki [1] [nM] | IC50 [2] [nM] |
| --- | --- | --- |
| COCC(COC)N(C)C(=O)OC[C@@H](C1CCCCC1)N1Cc2cc(Oc3ccccc3)ccc2N=C1N [Inhibitor 1139] | < 5000 | – |
| Cc1nc(CN(C(=O)OC[C@@H](C2CCCCC2)N2Cc3cc(Oc4ccccc4)ccc3N=C2N)C2CCCCC2)cs1 [Inhibitor 0579] | < 5000 | – |
| Cc1nc(CN(C(=O)OC[C@@H](C2CCCCC2)N2Cc3cc(Oc4ccccc4)ccc3N=C2N)C2CCCCC2)co1 [Inhibitor 0519] | < 5000 | – |
| CN(C)CC[C@@H](C1CCCCC1)N1Cc2cc(Oc3ccccc3)ccc2N=C1N [Inhibitor 0618] | < 5000 | – |
| Cn1cc(CN(CCC[C@@H](C2CCCCC2)N2Cc3cc(Oc4ccccc4)ccc3N=C2N)C2CCCCC2)cn1 [Inhibitor 1049] | < 500 | – |
| CN(CCC[C@@H](c1ccccc1)N1Cc2cc(Oc3ccccc3)ccc2N=C1N)C1CCCCC1 [Inhibitor 0418] | < 5000 | < 5000 |
| Cc1nc(CN(CCC[C@@H](C2CCCCC2)N2Cc3cc(Oc4cccnc4)ccc3N=C2N)C2CCCCC2)cs1 [Inhibitor 1209] | < 5000 | – |
| CN(C(=O)OC[C@@H](C1CCCOC1)N1Cc2cc(Oc3ccccc3)ccc2N=C1N)C1CCCCC1 (some centres unmarked) [Inhibitor 0318] | < 500 | < 5000 |
| CN(CCCC(C1CCOC1)N1Cc2cc(Oc3ccccc3)ccc2N=C1N)C1CCCCC1 (centres unmarked) [Inhibitor 0568] | < 500 | – |
| Cc1ncoc1CN(CCC[C@@H](C1CCCCC1)N1Cc2cc(Oc3ccccc3)ccc2N=C1N)C1CCCCC1 [Inhibitor 0929] | < 500 | – |
| Cc1nc(CCN(CCC[C@@H](C2CCCCC2)N2Cc3cc(Oc4ccccc4)ccc3N=C2N)C2CCCCC2)co1 [Inhibitor 0909] | < 500 | – |
| NC1=Nc2ccc(Oc3ccccc3)cc2CN1[C@@H](COC(=O)NC1CCCCC1O)C1CCCCC1 (some centres unmarked) [Inhibitor 0668] | < 500 | – |
| COCc1nc(CN(CCC[C@@H](C2CCCCC2)N2Cc3cc(Oc4ccccc4)ccc3N=C2N)C2CCCCC2)cs1 [Inhibitor 1099] | < 500 | – |
| Cc1nc(CN(CCC[C@@H](C2CCCCC2)N2Cc3cc(Oc4ccccn4)ccc3N=C2N)C2CCCCC2)cs1 [Inhibitor 1219] | < 5000 | – |
| CC(C)c1nc(CN(CCC[C@@H](C2CCCCC2)N2Cc3cc(Oc4ccccc4)ccc3N=C2N)C2CCCCC2)cs1 [Inhibitor 0659] | < 500 | – |
| Cc1nc(CCN(CCC[C@@H](C2CCCCC2)N2Cc3cc(Oc4ccccc4)ccc3N=C2N)C2CCCCC2)cs1 [Inhibitor 0809] | < 500 | – |
| CN(CC[C@@H](C1CCCCC1)N1Cc2cc(Oc3ccccc3)ccc2N=C1N)Cc1ccccc1 [Inhibitor 0628] | < 500 | – |
| CN(C(=O)OCC(C1CCOC1)N1Cc2cc(Oc3ccccc3)ccc2N=C1N)C1CCCCC1 (centres unmarked) [Inhibitor 0548] | < 500 | < 5000 |
| NC1=Nc2ccc(Oc3ccccc3)cc2CN1[C@@H](CCN(Cc1ccccc1)Cc1ccccc1)C1CCCCC1 [Inhibitor 0448] | < 500 | < 5000 |
| CN(CCC[C@@H](C1CCCCC1)N1Cc2cc(Oc3ccccc3)ccc2N=C1N)c1ccccc1 [Inhibitor 0538] | < 500 | – |
| CN(C(=O)OC[C@@H](c1ccccc1)N1Cc2cc(Oc3ccccc3)ccc2N=C1N)C1CCCCC1 [Inhibitor 0328] | < 5000 | < 5000 |
| COC[C@@H](NC(=O)OC[C@@H](C1CCCCC1)N1Cc2cc(Oc3ccccc3)ccc2N=C1N)C(=O)OC [Inhibitor 0469] | < 500 | – |
| CN(C(=O)OC[C@@H](C1CCCCC1)N1Cc2cc(Oc3ccccc3)ccc2N=C1N)C1CCCCC1O (some centres unmarked) [Inhibitor 0648] | < 500 | – |

Further lines, results first:

| Ki [1] [nM] | IC50 [2] [nM] | SMILES |
| --- | --- | --- |
| < 500 | – | NC1=Nc2ccc(Oc3ccccc3)cc2CN1[C@@H](COC(=O)NC1CCCCC1)C1CCCCC1 [Inhibitor 0658] |
| < 500 | – | Cc1nc(CN(C(=O)OC[C@@H](C2CCCCC2)N2Cc3cc(Oc4ccccc4)ccc3N=C2N)C2CCCCC2)c(C)o1 [Inhibitor 908] |
| < 500 | – | Cc1csc(CN(CCC[C@@H](C2CCCCC2)N2Cc3cc(Oc4ccccc4)ccc3N=C2N)C2CCCCC2)n1 [Inhibitor 409] |
| < 50 | – | Cc1[nH]ncc1CN(CCC[C@@H](C1CCCCC1)N1Cc2cc(Oc3ccccc3)ccc2N=C1N)C1CCCCC1 [Inhibitor 1519] |
| < 500 | – | CC(NCC[C@@H](C1CCCCC1)N1Cc2cc(Oc3ccccc3)ccc2N=C1N)c1ccccc1 (some centres unmarked) [Inhibitor 0438] |
| < 500 | – | NC1=Nc2ccc(Oc3ccccc3)cc2CN1[C@@H](CCCN(Cc1ccoc1)C1CCCCC1)C1CCCCC1 [Inhibitor 1379] |
| < 500 | – | CN(CCC[C@@H](C1CCCOC1)N1Cc2cc(Oc3ccccc3)ccc2N=C1N)C1CCCCC1 (some centres unmarked) [Inhibitor 0408] |
| < 500 | – | NC1=Nc2ccc(Oc3ccccc3)cc2CN1[C@@H](CCCN(Cc1cscn1)C1CCCCC1)C1CCCCC1 [Inhibitor 0979] |
| < 500 | – | Cc1nc(CN(CCC[C@@H](C2CCCCC2)N2Cc3cc(Oc4ccccc4)ccc3N=C2N)C2CCCCC2)c(C)o1 [Inhibitor 0509] |
| < 500 | – | Cc1csc(CN(C(=O)OC[C@@H](C2CCCCC2)N2Cc3cc(Oc4ccccc4)ccc3N=C2N)C2CCCCC2)n1 [Inhibitor 119] |
| < 50 | – | NC1=Nc2ccc(Oc3ccccc3)cc2CN1[C@@H](CCCN(Cc1cn[nH]c1)C1CCCCC1)C1CCCCC1 [Inhibitor 1509] |
| < 500 | – | Cc1nc(C)c(CN(CCC[C@@H](C2CCCCC2)N2Cc3cc(Oc4ccccc4)ccc3N=C2N)C2CCCCC2)o1 [Inhibitor 0789] |
| < 500 | – | NC1=Nc2ccc(Oc3ccccc3)cc2CN1[C@@H](CCNCC1CCCCC1)C1CCCCC1 [Inhibitor 0428] |
| < 500 | – | Cc1nc(CN(CCC[C@@H](C2CCCCC2)N2Cc3cc(Oc4ccccc4)ccc3N=C2N)C2CCCCC2)cs1 [Inhibitor 0589] |
| < 500 | – | COC[C@H](NC(=O)OC[C@@H](C1CCCCC1)N1Cc2cc(Oc3ccccc3)ccc2N=C1N)C(=O)OC [Inhibitor 0989] |
| < 50 | > 5000 | CN(C(=O)OC[C@@H](C1CCCCC1)N1Cc2cc(Oc3ccccc3)ccc2N=C1N)C1CCCCC1 [Inhibitor 0458] |
| < 50 | < 50 | CN(CCC[C@@H](C1CCCCC1)N1Cc2cc(Oc3ccccc3)ccc2N=C1N)C1CCCCC1 [Inhibitor 0188] |

From patent US8394807B2, “Quinazoline inhibitors of BACE 1 and methods of using” (Purdue Research Foundation, priority 2008, dated 2013)
